# Results from article PMC4177084 (Journal of Thyroid Research, 2014).
# Columns and labels:
# CDK2/CycE1 = target: T1, CDK2/CycE1 (Homo sapiens, UniProt P24941); assay: Cell free kinase inhibition assay; type: biochemical
# T1 construct: purchased Carna Biosciences, Inc. (Kobe, Japan)
# KIF5B-RET (wild-type) = target: T2, KIF5B-RET (wild-type) (Homo sapiens, UniProt P07949+P33176); assay: Western blot of RET phosphorylation in Nthy-ori 3-1 transfectants; type: cell-based; details: 1 h
# T2 construct: KIF5B N-terminal portion (fusion partner); expressed in transfected cells; host or cells: Nthy-ori 3-1 (human normal thyroid cells), plasmid pCLxIP KIF5B-RET
# T2 sequence (P07949 713-1063 limits assumed, one chain of several): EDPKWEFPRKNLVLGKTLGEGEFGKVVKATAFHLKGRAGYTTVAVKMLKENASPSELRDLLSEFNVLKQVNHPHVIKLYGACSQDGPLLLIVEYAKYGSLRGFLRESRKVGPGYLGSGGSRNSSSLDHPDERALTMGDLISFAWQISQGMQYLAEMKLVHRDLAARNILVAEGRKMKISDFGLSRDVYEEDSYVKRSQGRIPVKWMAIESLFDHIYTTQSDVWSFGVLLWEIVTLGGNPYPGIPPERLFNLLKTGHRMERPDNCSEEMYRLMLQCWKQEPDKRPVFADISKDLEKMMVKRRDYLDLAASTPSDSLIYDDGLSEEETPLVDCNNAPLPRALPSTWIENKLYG
# Source text: (§1) The human full-length KIF5B-RET gene was chemically synthesized by GenScript Corp. (Piscataway, NJ) and then amplified by polymerase chain reaction (PCR) using a primer set containing attB recombination sequences. ENTRY vectors for the Gateway cloning system (Life Technologies) were generated via the BP Clonase reaction using the PCR products and the plasmid pDONR221. The expression vector pCLxIP KIF5B-RET was generated via the LR Clonase reaction between each ENTRY vector and the destination vector pCLxIP-DEST [37]. Expression vectors for KIF5B-RET M918T were generated by introducing a point mutation into the pCLxIP KIF5B-RET expression vector.
# KIF5B-RET (M918T) = target: T3, KIF5B-RET (M918T) (Homo sapiens, UniProt P07949+P33176, M918T); assay: as above; type: cell-based; details: 1 h
# T3 construct: KIF5B N-terminal portion (fusion partner); expressed in transfected cells; host or cells: Nthy-ori 3-1 (human normal thyroid cells), plasmid pCLxIP KIF5B-RET M918T
# T3 sequence (P07949 713-1063 M918T limits assumed, one chain of several): as the sequence (P07949 713-1063 limits assumed, one chain of several) above, with M206T counted along it
# Source text: as §1
# [1] = test system: 5 ATC xenograft models (8305C, 8505C, TCO-1, KHM-5M, HTC/C3); assay: Human thyroid cancer xenograft models, tumor growth; type: in vivo, nude mice; details: all 5 ATC xenograft models, 10 and 100 mg/kg oral once daily 14 days
# Protocol: (§2) Nude mice (CAnN.Cg-Foxn1nu/CrlCrlj, female, 5-6 weeks old) were obtained from Charles River Laboratories Japan (Kanagawa, Japan). Mice were maintained under specific pathogen-free conditions and housed in barrier facilities on a 12 h light/dark cycle, with food and water ad libitum. All procedures using laboratory animals were done in accordance with all applicable institutional and government regulatory guidelines and policies and were performed in an animal facility accredited by the Center for Accreditation of Laboratory Animal Care of the Japan Health Sciences Foundation. Tumor cells were cultured in appropriate culture mediums. […] Then, 0.1-0.2 mL of the cell suspension was inoculated subcutaneously into the right flank region of each mouse. […] The tumor size was measured in two dimensions by using a caliper, and the volume was calculated by using the formula: tumor volume (mm^3) = 1/2 length (mm) × [width (mm)]^2. The change in tumor volume in the treated group relative to that in the control group was calculated according to the following formula: ΔT/C = (ΔT/ΔC) × 100%, where ΔT and ΔC are the change in tumor volume (i.e., growth) for the treated and vehicle control group, respectively. The percentage of tumor growth inhibition (%TGI) was calculated from the formula: [(1 − ΔT/ΔC) × 100].
# [2] = test system: 5 DTC xenograft models (K1, RO82-W-1, FTC-133, FTC-236, FTC-238); assay: as above; type: in vivo, nude mice; details: all 5 DTC xenograft models, 30 and 100 mg/kg oral once daily 14 days
# Protocol: as §2
# EPHB4 = target: T4, EPHB4 (Homo sapiens, UniProt P54760); assay: Cell free kinase inhibition assay; type: biochemical
# T4 construct: purchased Carna Biosciences, Inc. (Kobe, Japan)
# T4 sequence (P54760 16-987): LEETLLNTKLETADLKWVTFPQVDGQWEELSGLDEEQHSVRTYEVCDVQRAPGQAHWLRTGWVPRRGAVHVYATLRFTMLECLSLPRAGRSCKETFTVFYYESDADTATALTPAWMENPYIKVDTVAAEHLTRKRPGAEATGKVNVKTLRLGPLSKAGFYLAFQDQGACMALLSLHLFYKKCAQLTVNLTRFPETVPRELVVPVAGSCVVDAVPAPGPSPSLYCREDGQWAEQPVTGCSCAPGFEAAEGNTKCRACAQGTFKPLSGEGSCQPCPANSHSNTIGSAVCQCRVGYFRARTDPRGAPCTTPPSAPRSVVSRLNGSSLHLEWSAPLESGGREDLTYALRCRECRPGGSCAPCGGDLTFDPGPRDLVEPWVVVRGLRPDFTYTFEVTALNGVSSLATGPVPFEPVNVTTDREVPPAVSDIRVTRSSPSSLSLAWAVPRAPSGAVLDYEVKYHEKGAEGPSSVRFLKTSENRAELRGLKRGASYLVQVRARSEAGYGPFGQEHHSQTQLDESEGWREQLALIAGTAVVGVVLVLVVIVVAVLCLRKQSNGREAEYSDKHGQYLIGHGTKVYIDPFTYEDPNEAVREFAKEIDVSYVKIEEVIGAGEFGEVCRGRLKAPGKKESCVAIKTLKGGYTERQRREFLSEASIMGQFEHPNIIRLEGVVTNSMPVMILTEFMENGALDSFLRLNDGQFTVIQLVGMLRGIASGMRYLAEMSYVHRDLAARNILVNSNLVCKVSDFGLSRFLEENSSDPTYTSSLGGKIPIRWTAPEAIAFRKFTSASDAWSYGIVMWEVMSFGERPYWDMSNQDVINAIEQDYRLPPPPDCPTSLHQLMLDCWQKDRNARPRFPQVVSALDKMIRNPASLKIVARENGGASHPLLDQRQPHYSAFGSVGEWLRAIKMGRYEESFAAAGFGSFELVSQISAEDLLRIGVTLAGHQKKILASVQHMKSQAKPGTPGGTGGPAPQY
# [3] = test system: tumor microvessels in 5 ATC xenografts; assay: Microvessel density (CD31 immunohistochemistry) in xenografts; type: in vivo, nude mice; details: all 5 ATC xenograft models, 10 and 100 mg/kg
# Source text: (§3) Tumor tissues were resected from nude mice, embedded in Optimal Cutting Temperature (OCT) compound (Sakura Finetek Japan, Tokyo, Japan), frozen in dry ice-acetone, and then sectioned (8 μm), or they were embedded in paraffin, fixed overnight in immunohistochemical (IHC) Zinc Fixative (BD Biosciences), and then sectioned (6 μm). Tumor microvessels were stained by the indirect immunoperoxidase method with a rat anti-mouse CD31 monoclonal antibody (clone MEC13.3, BD Biosciences) and then visualized by using Vectastain ABC (Dako, Tokyo, Japan). Pericyte was stained by the indirect alkaline phosphatase method with an anti-α smooth muscle actin (SMA) antibody conjugated alkaline phosphatase (A 5691, Sigma-Aldrich) and visualized by using Simple Stain AP(R) (Nichirei Biosciences Inc, Tokyo, Japan). Adjacent sections were stained with Hematoxylin-Eosin. Microvessel density (MVD) was determined as described previously. Each section was scanned by using a microscope (VANOX AHBS3, Olympus, Tokyo, Japan) at low magnification to identify 5 areas with the highest densities of CD31-stained microvessels. The microvessels in the selected areas were then counted at 400x magnification. MVD was recorded as the number of microvessels per mm^2. In the DTC xenografts, the percentage of pericyte-covered microvessels was analyzed. Pericyte-covered vessels were identified by examining the colocalization of CD31- (endothelial cells-) positive vessels and αSMA- (pericytes-) positive cells. The number of pericyte-covered vessels was counted in the selected area and then compared with the total number of CD31-stained microvessels in the same area. The percentage of pericyte-covered microvessels was calculated as the number of pericyte-covered microvessels/total number of microvessels × 100 in the selected area. The MVD in the ATC xenograft models was determined by using the digital pathology system ScanScope XT (Aperio, Vista, CA). Briefly, CD31-stained whole tissue slices were scanned on the ScanScope system (Aperio) to generate high-resolution digital slides. By using a digital slide viewer, Aperio ImageScope (v10.0.36.1805, Aperio), 5 regions of interest (ROIs: each 500 μm square) were manually selected as areas with the highest densities of CD31-stained microvessels in each tumor slice. The number of microvessels in each ROI was measured by using Microvessel Analysis Algorithm v1.0 (Aperio), which automatically detects and quantifies microvessels on slides stained with endothelial markers. MVD was expressed as the number of microvessels per mm^2. […] The percentage of microvessel inhibition (%MVI) was calculated from the microvessel density (MVD) according to the following formula: [(1 − MVD of tumor in each compound-treated animal/Mean MVD of tumors in the vehicle control-treated group) × 100].
# [4] = test system: tumor microvessels in 5 DTC xenografts; assay: as above; type: in vivo, nude mice
# Source text: as §3
# [5] = test system: tumor microvessels in TT xenografts; assay: as above; type: in vivo, nude mice; details: 10 or 100 mg/kg
# Source text: as §3
# PDGFRα = target: T5, PDGFRα (Homo sapiens, UniProt P16234); assay: Cell free kinase inhibition assay; type: biochemical
# T5 construct: purchased Carna Biosciences, Inc. (Kobe, Japan)
# T5 sequence (P16234 24-1089): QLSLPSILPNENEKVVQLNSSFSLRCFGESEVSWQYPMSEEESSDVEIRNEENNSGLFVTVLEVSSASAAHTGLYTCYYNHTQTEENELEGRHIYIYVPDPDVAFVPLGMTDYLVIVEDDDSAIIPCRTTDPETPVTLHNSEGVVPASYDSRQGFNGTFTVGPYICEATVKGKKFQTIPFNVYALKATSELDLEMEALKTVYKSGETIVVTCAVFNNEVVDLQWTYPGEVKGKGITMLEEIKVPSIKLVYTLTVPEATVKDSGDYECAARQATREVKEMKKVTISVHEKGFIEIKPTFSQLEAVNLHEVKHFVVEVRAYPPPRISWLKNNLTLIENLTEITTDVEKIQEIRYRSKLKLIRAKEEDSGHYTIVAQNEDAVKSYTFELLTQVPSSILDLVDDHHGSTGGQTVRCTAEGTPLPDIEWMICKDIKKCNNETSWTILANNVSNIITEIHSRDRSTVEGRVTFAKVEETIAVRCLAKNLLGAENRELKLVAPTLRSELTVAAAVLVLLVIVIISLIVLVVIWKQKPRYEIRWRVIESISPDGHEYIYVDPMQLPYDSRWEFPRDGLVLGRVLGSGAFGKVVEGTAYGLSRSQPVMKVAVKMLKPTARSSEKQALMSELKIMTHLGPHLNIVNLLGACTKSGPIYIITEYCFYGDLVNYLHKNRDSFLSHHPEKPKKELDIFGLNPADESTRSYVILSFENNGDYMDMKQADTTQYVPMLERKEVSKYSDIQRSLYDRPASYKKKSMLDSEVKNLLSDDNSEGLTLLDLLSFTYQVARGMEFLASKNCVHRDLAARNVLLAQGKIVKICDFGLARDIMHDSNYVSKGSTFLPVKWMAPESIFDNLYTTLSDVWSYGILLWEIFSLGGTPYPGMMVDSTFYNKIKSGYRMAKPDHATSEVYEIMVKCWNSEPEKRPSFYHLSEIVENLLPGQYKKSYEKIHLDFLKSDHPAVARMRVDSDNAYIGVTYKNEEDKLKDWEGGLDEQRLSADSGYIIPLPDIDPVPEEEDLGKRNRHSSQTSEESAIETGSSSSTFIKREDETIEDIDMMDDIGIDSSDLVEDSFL
compound,measurement,setting,value
"COc1cc2nccc(Oc3ccc(NC(=O)NC4CC4)c(Cl)c3)c2cc1C(N)=O [Lenvatinib, Lenvatinib mesilate]",IC50,CDK2/CycE1,> 10 µM
same,phosphorylation of wild-type RET,KIF5B-RET (wild-type),inhibited
same,phosphorylation of M918T mutant RET,KIF5B-RET (M918T),inhibited
same,antitumor activity,[1],significant antitumor activity
same,antitumor activity,[2],significant antitumor activity
same,IC50,EPHB4,4.6 µM
same,MVD,[3],decreased significantly
same,MVD,[4]; 10 mg/kg,significantly decreased in 4 of the 5 DTC xenografts
same,MVD,"[4]; 100 mg/kg, all of the 5",significantly decreased
same,MVD,[5],did not decrease the MVDs
same,IC50,PDGFRα,0.029 µM
